Results from publication PMC10938439, “C-3 Steroidal Hemiesters as Inhibitors of 17β-Hydroxysteroid Dehydrogenase Type 10” (ACS Omega, 2024).
Where “and” joins values, the source holds several entries; their conditions need not be identical. Equal entries are not always repeated. Entries after “also recorded” stand apart in the source; their conditions may differ.

Key:
[1] = target: T1, 17β-HSD10 (Homo sapiens, UniProt Q99714); assay: Inhibition of 17β-estradiol to estrone transformation by purified recombinant 17β-HSD10 (NADH fluorescence); type: biochemical; details: purified recombinant 17β-HSD10, 17β-estradiol as substrate; means ± SEM (n = 4)
T1 construct: inferred from Ni-NTA purification with imidazole elution; made in house; host or cells: E. coli BL21 (DE3)
T1 sequence (Q99714 1-261): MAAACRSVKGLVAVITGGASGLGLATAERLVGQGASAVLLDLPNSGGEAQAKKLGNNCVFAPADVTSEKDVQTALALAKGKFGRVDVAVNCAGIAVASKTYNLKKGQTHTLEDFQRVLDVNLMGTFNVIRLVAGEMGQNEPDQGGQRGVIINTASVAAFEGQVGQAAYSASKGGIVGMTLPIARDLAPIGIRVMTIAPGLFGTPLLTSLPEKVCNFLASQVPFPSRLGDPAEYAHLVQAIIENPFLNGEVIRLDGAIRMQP
Procedure: As standards, we used the known inhibitor AG18051 as the positive control and the published steroidal compounds,[18] namely, pregnenolone, testosterone, dihydrotestosterone, androsterone, epiandrosterone, and dehydroepiandrosterone.
17β-HSD10 was performed as described previously.[11] Briefly, the autoinduction and overexpression were performed at 25 °C for 18 h in the E. coli BL21 (DE3) strain. The bacterial pellet was resuspended in lysis buffer that consisted of sodium phosphate buffer ([…]), NaCl (150 mM), and imidazole (10 mM, pH 8.0) with 1 mg/mL lysozyme and benzonase (150 U/mL). cOmplete EDTA-free protease inhibitor cocktail was incubated for 20 min on ice and then sonicated (12 × 10 s pulses with 30 s pauses). The supernatant was applied to the Ni-NTA agarose resin after centrifugation (16 000g, 10 min, 4 °C). Then, the solution was incubated on ice for 1 h with gentle stirring.
The standard steroids were screened at 1 and 10 μM concentrations, and the tested compounds and standard AG18051 were screened at 10 μM concentration. For compounds with at least 50% inhibition of 17β-HSD10, the IC50 values were determined.
Steroid stock solutions (5 mM) were further diluted with DMSO to the working concentrations. DMSO was used as a vehicle control, and AG18051 was used as a control inhibitor. The enzyme activity was determined fluorometrically at 37 °C in the activity assay buffer [100 mM potassium phosphate buffer (pH 8.0)]. The general reaction mixture (200 μL per well) consisted of 17β-estradiol (25 μM, DMSO), NAD+ (500 μM, deionized water), recombinant 17β-HSD10 (45 nM), and different concentrations of inhibitor (2.2% (v/v) final concentration of DMSO as solvent). Before the addition of substrate, the reaction mixture of enzyme, cofactor, and inhibitor in the assay buffer was preincubated for 5 min at 37 °C. The increase of fluorescence (Ex/Em = 340/460 nm) due to the formation of NADH was monitored for 20 min (30 s intervals). For IC50 value determination, dose–response inhibition at 11 different concentrations of inhibitor (0.6–33.75 μM) was determined and the data were analyzed by GraphPad Prism 8.4.3 (GraphPad Software Inc.). All measurements were performed in a tetraplicate.

[2] = target: T1, 17β-HSD10; assay: Inhibition of allopregnanolone to 5α-dihydroprogesterone transformation by recombinant 17β-HSD10; type: biochemical; details: 20 μM allopregnanolone as substrate; mean ± SEM (n = 4)
Procedure: Compound 23 (5 mM stock solution) was diluted with DMSO to the working concentrations. DMSO was used as vehicle control. The enzyme activity was determined as described in the previous section; the only difference was the replacement of 25 μM 17β-estradiol with 20 μM allopregnanolone as 17β-HSD10 substrate. For IC50 value determination, dose–response inhibition at 10 different concentrations of inhibitor (0.16–33.75 μM) was determined, and the data were analyzed by GraphPad Prism 8.4.3 (GraphPad Software Inc.). All measurements were performed in a tetraplicate.

[3] = system: HEK-293 cells; assay: CellTox Green cytotoxicity assay; type: cell-based; details: HEK-293, up to 20 μM
Procedure: Finally, because the strongest inhibitor identified in vitro compound 23 has a favorable permeability coefficient, its potency to inhibit 17β-HSD10 also at the cellular level was determined. First, it was necessary to exclude the possibility that higher concentrations of compound 23 could be unfavorable to cells. The effects of compound 23 on the cellular viability and cytotoxicity of this compound (1, 10, and 20 μM) were determined using CellTiter-Glo Viability Assay and CellTox Green Assay, respectively, on HEK-293 cell line.
HEK-293 cells in DMEM (Capricorn) were supplemented with fetal bovine serum (10%, Gibco), L-glutamine (2 mM, Lonza), and nonessential amino acid additives (Gibco). Cells were maintained at 37 °C under a humidified atmosphere of 5% CO2. Compound 23 was tested on the HEK-293 cell line on cell viability using CellTox Green (G8741, Promega) and the CellTiter-Glo 2.0 kit (G9241, Promega), respectively, to establish their cytotoxic effect. Using a Tecan Spark 10 M instrument, the measurements were performed as end point methods in the multiplex. For multiplex measurement, 7500 cells were seeded per well in 50 μL of culture media and cultured for 24 h before the addition of selected compounds. […] Next, the CellTiter-Glo Luminescent Cell Viability Assay with an integration time of 500 ms was determined.

C[C@@]12CCC[C@H]1[C@@H]1CC=C3C[C@@H](OC(=O)CCCCC(=O)O)CC[C@]3(C)[C@H]1CC2 [Compound 23, Androst-5-en-3β-yl Hemiadipate]
IC50 [1]: ~5.59 µM and 5.59 µM
IC50 [2]: ~15.2 µM and 15.2 µM
cytotoxicity (CellTox Green) [3]: not cytotoxic; also recorded: not toxic
